Assay results published in US9675616B2, “Arylaminoalcohol-substituted 2,3-dihydroimidazo[1,2-C]quinolines” (BAYER INTELLECTUAL PROPERTY GMBH, priority 2010, dated 2017).

How the values were obtained:
[1] = target: PI3Kα (complex of human p110α and human p85α) (Homo sapiens (Human), UniProt P42336); experiment: PI3Kα kinase assay (HTRF-based PI3K inhibition assay); settings: 10 μM ATP, 10 μM PIP2; average value; read-out: average IC50 in the PI3K alpha biochemical assay
Source text: Determination of % Inhibition and IC50 Values of Compounds in PI3Kα Kinase Assay
PI3Kα inhibitory activity of compounds of the present invention was quantified employing the HTRF-based PI3K inhibition assay as described below.
(§1) Chemicals and Assay Materials
(§2) As reagents for the kinase reaction itself and the quantification of the reaction product, the PI3-Kinase HTRF Assay kit from Millipore (#33-017) was used. With this kit the phosphatidylinositol 3,4,5-trisphosphate (PIP3) generated in the kinase reaction is detected by displacement of a biotinylated ligand from an energy transfer complex consisting of a Europium-labeled anti-GST monoclonal antibody, a GST-tagged PH domain, biotinylated PIP3 and Streptavidin-Allophycocyanin (APC).
The amount of PI3Kα was chosen to have the enzyme reaction in the linear range and depended on the activity of the individual lot, typical concentrations in assay were in the range of 90 ng/mL. […]
The reaction was stopped by the addition of 1 μL of an stop solution (containing the biotinylated PIP3 used as a tracer), then 1 μL detection mix (containing a Europium-labeled anti-GST monoclonal antibody, a GST-tagged PH domain, and Streptavidin-Allophycocyanin) was added and resulting mixture was incubated 3 h at 22° C. to allow the formation of complexes between the detection reagents and either the PIP3 generated in the kinase reaction, or the biotinylated PIP3 added with the stop solution. Subsequently, the amount of energy transfer complex consisting of a Europium-labeled anti-GST monoclonal antibody, a GST-tagged PH domain, biotinylated PIP3 and Streptavidin-Allophycocyanin (APC) was evaluated by measurement of the resonance energy transfer from the Europium-labeled anti-GST monoclonal antibody to the Streptavidin-Allophycocyanin. Therefore, the fluorescence emissions at 620 nm and 665 nm after excitation at 350 nm were measured using a TR-FRET reader, e.g., a Pherastar (BMG Labtechnologies, Offenburg, Germany) or a Viewlux (Perkin-Elmer). […]

[2] = target: PI3Kβ (complex of human p110β and human p85α) (Homo sapiens (Human), UniProt P42338); experiment: PI3Kβ kinase assay (HTRF based PI3K inhibition assay); type: biochemical; settings: for IC50: 10 μM ATP, 10 μM PIP2, average value, read-out: average IC50 in the PI3K beta biochemical assay; for PI3K beta average IC50/PI3K alpha average IC50: ratio of beta IC50 to alpha IC50 (isoform balance)
Source text: Determination of % Inhibition and IC50 Values of Compounds in PI3Kβ Kinase Assay
PI3Kβ inhibitory activity of compounds of the present invention was quantified employing the HTRF based PI3K inhibition assay as described below.
as §1, §2
For the assay 50 nL of a 80-fold concentrated solution of the test compound in DMSO was pipetted into a black low volume 384-well microtiter plate (Greiner Bio-One, Frickenhausen, Germany), 3 μl of a solution of PI3Kβ and phosphatidylinositol-4,5-bisphosphate (PIP2, 13.8 μM=>final conc. in 4 μl reaction volume=10 μM) in 1× reaction buffer (exact composition not disclosed by the vendor) were added and the mixture was incubated for 15 min at 22° C. to allow pre-binding of the test compounds to the enzyme before the start of the kinase reaction. The amount of PI3Kβ was chosen to have the enzyme reaction in the linear range and depended on the activity of the individual lot, typical concentrations in assay were in the range of 120 ng/mL. Then the kinase reaction was started by the addition of 1 μL of a solution of adenosine triphosphate (ATP, 40 μM=>final conc. in the 4 μl assay volume is 10 μM) in reaction buffer and the resulting mixture was incubated for a reaction time of 20 min at 22° C.
The reaction was stopped by the addition of 1 μL of an stop solution (containing the biotinylated PIP3 used as a tracer). Then 1 μL detection mix (containing a Europium-labeled anti-GST monoclonal antibody, a GST-tagged PH domain, and Streptavidin-Allophycocyanin) was added and resulting mixture was incubated for 3 h at 22° C. to allow the formation of complexes between the detection reagents and either the PIP3 generated in the kinase reaction, or the biotinylated PIP3 added with the stop solution. Subsequently the amount of energy transfer complex consisting of a Europium-labeled anti-GST monoclonal antibody, a GST-tagged PH domain, biotinylated PIP3 and Streptavidin-Allophycocyanin (APC) was evaluated by measurement of the resonance energy transfer from the Europium-labeled anti-GST monoclonal antibody to the Streptavidin-Allophycocyanin. Therefore, the fluorescence emissions at 620 nm and 665 nm after excitation at 350 nm were measured using a TR-FRET reader, e.g., a Pherastar (BMG Labtechnologies, Offenburg, Germany) or a Viewlux (Perkin-Elmer). The ratio of the emissions at 665 nm and at […] were taken as the measure for the amount of biotinylated PIP3 bound to the GST-tagged PH domain, which is negatively correlated with the amount of PIP3 generated.

Sequence of PI3Kβ (complex of human p110β and human p85α) (P42338 whole entry, canonical isoform): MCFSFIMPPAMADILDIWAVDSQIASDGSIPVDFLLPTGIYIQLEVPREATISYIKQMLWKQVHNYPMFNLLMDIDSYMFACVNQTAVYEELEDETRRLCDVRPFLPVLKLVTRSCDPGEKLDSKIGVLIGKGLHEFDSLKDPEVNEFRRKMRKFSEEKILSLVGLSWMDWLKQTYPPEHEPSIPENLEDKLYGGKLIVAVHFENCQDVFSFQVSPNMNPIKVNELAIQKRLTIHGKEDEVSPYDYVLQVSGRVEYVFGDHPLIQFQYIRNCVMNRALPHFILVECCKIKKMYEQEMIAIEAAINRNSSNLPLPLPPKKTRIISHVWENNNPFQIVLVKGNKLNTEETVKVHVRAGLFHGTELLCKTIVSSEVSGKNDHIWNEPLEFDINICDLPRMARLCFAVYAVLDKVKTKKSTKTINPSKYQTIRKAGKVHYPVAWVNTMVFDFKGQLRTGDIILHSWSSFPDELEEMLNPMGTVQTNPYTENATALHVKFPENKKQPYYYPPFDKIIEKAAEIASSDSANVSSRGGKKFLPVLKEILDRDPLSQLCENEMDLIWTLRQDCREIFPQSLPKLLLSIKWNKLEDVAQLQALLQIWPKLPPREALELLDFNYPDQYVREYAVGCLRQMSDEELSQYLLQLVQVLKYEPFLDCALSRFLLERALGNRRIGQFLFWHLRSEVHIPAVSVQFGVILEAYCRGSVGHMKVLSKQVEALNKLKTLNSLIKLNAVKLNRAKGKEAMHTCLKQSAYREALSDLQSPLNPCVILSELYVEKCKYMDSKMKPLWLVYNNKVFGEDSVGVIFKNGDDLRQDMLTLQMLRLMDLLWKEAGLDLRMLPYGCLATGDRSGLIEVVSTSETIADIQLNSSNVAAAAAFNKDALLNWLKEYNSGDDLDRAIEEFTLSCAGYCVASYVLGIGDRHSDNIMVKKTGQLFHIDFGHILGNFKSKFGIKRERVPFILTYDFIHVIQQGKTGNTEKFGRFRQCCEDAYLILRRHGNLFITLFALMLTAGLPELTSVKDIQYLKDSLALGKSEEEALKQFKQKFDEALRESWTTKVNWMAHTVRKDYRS
Sequence of PI3Kβ (complex of human p110β and human p85α) (P27986 whole entry partner, canonical isoform): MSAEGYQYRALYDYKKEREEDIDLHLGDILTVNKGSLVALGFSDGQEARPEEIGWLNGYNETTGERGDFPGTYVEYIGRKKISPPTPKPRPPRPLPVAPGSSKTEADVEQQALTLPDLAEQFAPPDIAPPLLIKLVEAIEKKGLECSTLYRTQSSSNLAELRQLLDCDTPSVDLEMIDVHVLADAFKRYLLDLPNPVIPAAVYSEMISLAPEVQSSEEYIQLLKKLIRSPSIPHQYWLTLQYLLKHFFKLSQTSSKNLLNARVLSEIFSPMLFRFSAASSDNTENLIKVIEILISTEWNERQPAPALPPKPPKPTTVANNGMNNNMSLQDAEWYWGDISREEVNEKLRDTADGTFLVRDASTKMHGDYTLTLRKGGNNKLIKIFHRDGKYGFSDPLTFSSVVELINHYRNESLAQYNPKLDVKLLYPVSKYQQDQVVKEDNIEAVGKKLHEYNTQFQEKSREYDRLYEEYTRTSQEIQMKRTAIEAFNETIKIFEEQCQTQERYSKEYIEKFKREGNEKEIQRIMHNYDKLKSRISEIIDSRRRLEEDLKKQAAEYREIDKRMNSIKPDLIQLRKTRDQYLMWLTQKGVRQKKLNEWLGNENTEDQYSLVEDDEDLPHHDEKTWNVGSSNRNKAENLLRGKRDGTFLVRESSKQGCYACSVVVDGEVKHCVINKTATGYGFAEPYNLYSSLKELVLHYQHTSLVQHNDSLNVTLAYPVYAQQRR
Sequence of PI3Kα (complex of human p110α and human p85α) (P42336 whole entry): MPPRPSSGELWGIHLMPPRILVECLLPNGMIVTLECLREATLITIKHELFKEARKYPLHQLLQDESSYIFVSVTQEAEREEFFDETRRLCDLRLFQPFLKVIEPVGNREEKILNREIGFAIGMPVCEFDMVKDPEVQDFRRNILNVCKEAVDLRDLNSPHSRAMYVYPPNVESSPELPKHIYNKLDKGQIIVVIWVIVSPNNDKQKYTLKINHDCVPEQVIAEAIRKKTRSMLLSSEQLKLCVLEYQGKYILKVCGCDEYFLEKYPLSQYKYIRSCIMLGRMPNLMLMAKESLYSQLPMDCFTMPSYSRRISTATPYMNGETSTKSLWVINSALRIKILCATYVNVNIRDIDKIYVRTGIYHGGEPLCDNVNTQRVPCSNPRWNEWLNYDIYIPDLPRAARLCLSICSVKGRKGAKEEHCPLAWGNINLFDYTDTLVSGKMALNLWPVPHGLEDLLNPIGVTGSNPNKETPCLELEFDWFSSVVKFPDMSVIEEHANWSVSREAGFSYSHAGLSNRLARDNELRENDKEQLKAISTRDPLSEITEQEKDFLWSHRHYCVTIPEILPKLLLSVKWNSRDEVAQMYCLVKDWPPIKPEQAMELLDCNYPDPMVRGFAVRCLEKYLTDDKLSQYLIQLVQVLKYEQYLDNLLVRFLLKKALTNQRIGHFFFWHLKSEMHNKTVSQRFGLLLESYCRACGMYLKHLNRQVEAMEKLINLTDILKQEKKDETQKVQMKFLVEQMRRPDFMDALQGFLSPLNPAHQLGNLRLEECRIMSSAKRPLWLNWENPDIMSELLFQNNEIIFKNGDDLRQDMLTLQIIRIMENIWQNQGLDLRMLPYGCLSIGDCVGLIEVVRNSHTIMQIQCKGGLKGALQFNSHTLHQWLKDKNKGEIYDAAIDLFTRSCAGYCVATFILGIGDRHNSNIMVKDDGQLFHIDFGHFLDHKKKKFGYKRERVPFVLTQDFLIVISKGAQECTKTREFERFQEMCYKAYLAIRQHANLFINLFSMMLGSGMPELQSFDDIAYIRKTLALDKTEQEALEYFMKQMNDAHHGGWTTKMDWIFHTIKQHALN
Sequence of PI3Kα (complex of human p110α and human p85α) (P27986 whole entry partner): as the sequence (P27986 whole entry partner, canonical isoform) above

SMILES | IC50 [1] | IC50 [2] | PI3K beta average IC50/PI3K alpha average IC50 [2]
COc1c(OC[C@@H](O)CN[C@@H](C)c2ccccc2)ccc2c1N=C(NC(=O)c1cnc(N)nc1)N1CCN=C21 (relative stereo) [Example 5, rel-2-Amino-N-(8-{[(2R)-2-hydroxy-3-{[(1R)-1-phenylethyl]amino}propyl]oxy}-7-methoxy-2,3-dihydroimidazo[1,2-c]quinazolin-5-yl)pyrimidine-5-carboxamide] | < 10 nM | < 10 nM | 5.40
COc1c(OC[C@@H](O)CN[C@@H](C)c2ccccc2)ccc2c1N=C(NC(=O)c1cnc(N)nc1)N1CCN=C21 [Example 6, 2-Amino-N-(8-{[(2S)-2-hydroxy-3-{[(1S)-1-phenylethyl]amino}propyl]oxy}-7-methoxy-2,3-dihydroimidazo[1,2-c]quinazolin-5-yl)pyrimidine-5-carboxamide] | < 10 nM | < 10 nM | 7.01
COc1c(OC[C@H](O)CN[C@@H](C)c2ccccc2)ccc2c1N=C(NC(=O)c1cnc(N)nc1)N1CCN=C21 [Example 7, 2-Amino-N-(8-{[(2R)-2-hydroxy-3-{[(1S)-1-phenylethyl]amino}propyl]oxy}-7-methoxy-2,3-dihydroimidazo[1,2-c]quinazolin-5-yl)pyrimidine-5-carboxamide] | < 10 nM | < 10 nM | 3.44
